Experiment: RP, Thermo Scientific Acclaim RSLC 120 C18, 100 × 2.1 mm, 2.2 µm, 30 °C, 0.2 mL/min, estimated dead time 1.1 min; A: 90% water + 10% methanol + 0.01% formic acid + 5 mM ammonium formate, pH 3.61; B: methanol + 0.01% formic acid + 5 mM ammonium formate, pH 3.61; gradient (min/%B) 0/1 1/1 2/39 13/99.9 15/99.9 15.1/1 20.1/1
Settings: stereoisomer not certain

| Compound | LC retention time [min] |
| --- | --- |
| CCCCCn1cc(C(=O)CC(C)(C)C(C)(C)O)c2ccccc21 [HTMPIPO-4] | 11.6 |
| CC(Oc1ccc(Oc2cnc3cc(Cl)ccc3n2)cc1)C(=O)O (configuration not stated) [Quizalofop] | 9.62 |
| OC(Cn1cncn1)(Cn1cncn1)c1ccc(F)cc1F [Fluconazole] | 5.06 |
| O=C1CN=C(c2ccccc2F)c2cc(Br)ccc2N1 [Flubromazepam] | 8.7 |
| COC(=O)C(C)Oc1ccc(Cl)cc1C (configuration not stated) [Mecoprop-methylester] | 10.6 |
| O=C(CCCl)NCc1ccccc1 [Beclamide] | 6.27 |
| CCC(C)c1ccccc1OC(=O)NC (configuration not stated) [Fenobucarb] | 9.05 |
| CCCCn1cc(C(=O)c2ccc(C)c3ccccc23)c2ccccc21 [JWH-073-4-Methyl] | 12.4 |
| CSc1nc(N)nc(NC(C)(C)C)n1 [Irgarol-descyclopropyl] | 8.43 |
| CC(C)N1C(=O)N(c2ccccc2)CSC1=NC(C)(C)C [Buprofezin  (Z-isomer. Buprofexin)] | 12.2 |
| CC#Cc1cc(C)nc(Nc2ccccc2)n1 [Mepanipyrim] | 10.2 |
| COC(=O)C(C)N(C(=O)Cc1ccccc1)c1c(C)cccc1C (configuration not stated) [Benalaxyl] | 10.9 |
| CC(=O)Nc1nnc(S(N)(=O)=O)s1 [Acetazolamide] | 3.43 |
| CCN1CCCC1CNC(=O)c1cc(S(N)(=O)=O)ccc1O (configuration not stated) [Sulpiride-O-Desmethyl] | 3.18 |
| COc1cc(OC)nc(NC(=O)NS(=O)(=O)c2cc(NC=O)ccc2C(=O)N(C)C)n1 [Foramsulfuron] | 7.54 |
| O=C(c1ccc(Cl)cc1)c1ccc(Cl)cc1 [Benzophenone-p.p-Dichloro] | 11.9 |
| O=C(O)COC(=O)Cc1ccccc1Nc1c(Cl)cccc1Cl [Aceclofenac] | 9.2 |
| COC(=O)C1=C(C)NC(C)=C(C(=O)OCC(C)C)C1c1ccccc1[N+](=O)[O-] (configuration not stated) [Nisoldipine] | 10.6 |
| CC(=O)OC1C=CC2C3Cc4ccc(O)c5c4C2(CCN3C)C1O5 (configuration not stated) [MAM (6-O-Monoacetylmorphine)] | 3.75 |
| Cc1ncc(CSSCc2cnc(C)c(O)c2CO)c(CO)c1O [Pyritinol] | 5.54 |
| Cc1nnc2n1-c1sc(Br)cc1C(c1ccccc1Cl)=NC2 [Brotizolam] | 8.28 |

| Compound | LC retention time [min] |
| --- | --- |
| CCOP(=S)(OCC)SCS(=O)(=O)C(C)(C)C [Terbufos sulfone] | 9.01 |
| CCCCCCCCCCCCN=C(N)N [Dodine (Ion1+)] | 11.2 |
| CCCC(C)C(=O)Nc1ccc(C)c(Cl)c1 (configuration not stated) [Pentanochlor] | 10.6 |
| CCCCOC(=O)COc1ccc(Cl)cc1Cl [2.4-D-butylester] | 11.9 |
| COC(=O)c1ccccc1S(=O)(=O)NC(=O)Nc1nc(C)cc(C)n1 [Sulfometuron-methyl] | 6.92 |
| Cc1ccc(S(=O)(=O)NC(=O)NC2C3CCC(C)(C2O)C3(C)C)cc1 (configuration not stated) [Glibornuride] | 9.79 |
| CSC1=NC(C)(c2ccccc2)C(=O)N1Nc1ccccc1 (configuration not stated) [Fenamidone] | 9.22 |
| CCN(CC)C(=O)C(Cl)=C(C)OP(=O)(OC)OC [Phosphamidon (Dimecron)] | 6.27 |
| CN1CSC(=S)N(C)C1 [Dazomet] | 3.97 |
| CC(=O)OC1C(C)OC(n2cc(F)c(N)nc2=O)C1OC(C)=O (configuration not stated) [Cytidine-2' 3'-di-O-acetyl-5'-deoxy-5-fluoro] | 5.06 |
| O=C1Nc2ccc([N+](=O)[O-])cc2C(c2ccccc2F)=NC1O (configuration not stated) [Nifoxipam] | 6.58 |
| CC(=O)OC1CCC2C3CCC4CC(=O)C=C(C)C4(C)C3CCC12C (configuration not stated) [Metenolone acetate] | 12.5 |
| CC1(c2ccc(Oc3ccccc3)cc2)OC(=O)N(Nc2ccccc2)C1=O (configuration not stated) [Famoxadone] | 11 |
| CCN(CC)CCOC(=O)C(O)(c1ccccc1)c1ccccc1 [Benactyzine] | 6.08 |
| CON=C(C(=O)NC1C(=O)N2C(C(=O)[O-])=C(C[n+]3cccc4c3CCCC4)CSC12)c1csc(N)n1 (configuration not stated) [Cefquinome] | 3.76 |
| CCc1nn(CCCN2CCN(c3cccc(Cl)c3)CC2)c(=O)n1CCOc1ccccc1 [Nefazodone] | 9.95 |
| CCCc1nn(C)c2c(=O)[nH]c(-c3cc(C(C)=O)ccc3OCC)nc12 [Gendenafil] | 9.81 |
| C#CC1(O)CCC2C3CCC4=CC(=O)CCC4C3CCC21CC (configuration not stated) [Norgestrel] | 10.2 |
| O=C(Oc1cccc2ccccc12)c1nn(CCCCCF)c2ccccc12 [SDB-005-5F] | 12.1 |
| CN(C)C(CCOc1cccc2ccccc12)c1ccccc1 (configuration not stated) [Dapoxetine] | 8.34 |
| Cc1ccc(N(CC2=NCCN2)c2cccc(O)c2)cc1 [Phentolamine] | 5.86 |

| Compound | LC retention time [min] |
| --- | --- |
| CCC1OC(=O)C(C)C(OC2CC(C)(OC)C(O)C(C)O2)C(C)C(OC2OC(C)CC(NC)C2O)C(C)(OC)CC(C)C(=O)C(C)C(O)C1(C)O (configuration not stated) [Clarithromycin-N-desmethyl] | 9.16 |
| CC(C)N(C(=O)COc1nnc(C(F)(F)F)s1)c1ccc(F)cc1 [Flufenacet] | 10.1 |
| CCC1(C2OC(C3OC(O)(CO)C(C)CC3C)CC2C)CCC(C2(C)CCC3(CC(O)C(C)C(C(C)C(OC)C(C)C(=O)O)O3)O2)O1 (configuration not stated) [Monensin] | 13.8 |
| CC(C)(C)C(=O)C(Oc1ccc(Cl)cc1)n1ccnc1 (configuration not stated) [Climbazole] | 10.1 |
| CN1CCN(CCCN2c3ccccc3Sc3ccc(C(F)(F)F)cc32)CC1 [Trifluoperazine] | 10.2 |
| CCCSc1nc(NC2CC2c2ccc(F)c(F)c2)c2nnn(C3CC(OCCO)C(O)C3O)c2n1 (configuration not stated) [Ticagrelor] | 11.3 |
| CNCC12CCC(c3ccccc31)c1ccccc12 [Benzoctamine] | 6.52 |
| CC(CN1CCN(CCOCCO)CC1)CN1c2ccccc2Sc2ccccc21 (configuration not stated) [Dixyrazine] | 9.08 |
| O=C(O)Cc1c[nH]c2ccc(O)cc12 [5-Hydroxyindole-3-acetic acid] | 3.93 |
| CN1C2CCCC1CC(NC(=O)c1nn(C)c3ccccc13)C2 (configuration not stated) [Granisetron] | 4.99 |
| CNC(=O)Oc1ccccc1C1OCCO1 [Dioxacarb] | 5.16 |
| COC(=O)C1C(OC(=O)c2ccccc2)CC2CCC1N2C (configuration not stated) [Cocaine] | 4.84 |
| CN(C)S(=O)(=O)c1ccc2c(c1)N(CCCN1CCC(CCO)CC1)c1ccccc1S2 [Pipotiazine] | 7.39 |
| CN(C)CCC=C1c2ccccc2C=Cc2ccccc21 [Cyclobenzaprine] | 7.95 |
| NS(=O)(=O)c1cc2c(cc1C(F)(F)F)NC(Cc1ccccc1)NS2(=O)=O (configuration not stated) [Bendroflumethiazide] | 6.82 |
| CC(C(=O)c1ccc2c(c1)OCO2)N1CCCC1 (configuration not stated) [MDPPP (3-4-Methylenedioxy-a-pyrrolidinopropiophenone)] | 4.13 |
| CC(C)(C)NC(=O)C1CCC2C3CCC4NC(=O)C=CC4(C)C3CCC12C (configuration not stated) [Finasteride] | 9.9 |
| Cc1onc(-c2c(Cl)cccc2Cl)c1C(=O)NC1C(=O)N2C1SC(C)(C)C2C(=O)O (configuration not stated) [Dicloxacillin] | 7.8 |
| CC(C)(C)NCC(O)COc1cccc2c1SCCC2 (configuration not stated) [Tertatolol] | 6.76 |
| CCCn1c(C)c(C(=O)c2cccc3ccccc23)c2ccccc21 [JWH-015] | 11.5 |
| CN1CCN(CC(=O)N2c3ccccc3C(=O)Nc3cccnc32)CC1 [Pirenzepine] | 4.11 |

| Compound | LC retention time [min] |
| --- | --- |
| CCCC(C(=O)c1ccccc1)N1CCCC1 (stereo not drawn) [PVP- Alpha] | 5.08 |
| COc1cc(OC)nc(NC(=O)NS(=O)(=O)c2c(Cl)nc3ccccn23)n1 [Imazosulfuron] | 8.78 |
| CCNC(C)C(=O)c1ccc2c(c1)OCO2 (configuration not stated) [Ethylone] | 4.04 |
| COC(C)C(O)(C(=O)OCC1=CCN2CCC(O)C12)C(C)C (configuration not stated) [Heliotrine] | 4.27 |
| COC(=O)C(Cc1ccccc1)NC(=O)C(N)CC(=O)O (configuration not stated) [Aspartame] | 5.01 |
| O=c1[nH]c2ccccc2n1C1CCN(CCCC(c2ccc(F)cc2)c2ccc(F)cc2)CC1 [Pimozide] | 8.73 |
| COC(=O)C(c1ccccc1Cl)N1CCc2sccc2C1 (configuration not stated) [Clopidogrel] | 11.8 |
| CCC1CCCC(OC2CCC(N(C)C)C(C)O2)C(C)C(=O)C2=CC3C(C=C(C)C4CC(OC5OC(C)C(OC)C(OC)C5OC)CC43)C2CC(=O)O1 (configuration not stated) [Spinosad D] | 11.8 |
| COc1cnc(NS(=O)(=O)c2ccc(N)cc2)nc1 [Sulfameter (sulfumetin)] | 4.18 |
| Cc1cccc(C)c1N(Cn1cccn1)C(=O)CCl [Metazachlor] | 8.11 |
| CP(=O)(O)CCC(N)C(=O)O (configuration not stated) [Glufosinate] | 1.44 |
| CC(=O)OCC(=O)C1(O)CCC2C3CCC4=CC(=O)CCC4(C)C3C(O)CC21C (configuration not stated) [Hydrocortisone 21-acetate] | 8.8 |
| COC(=O)c1c(C(F)F)nc(C(F)(F)F)c(C2=NCCS2)c1CC(C)C [Thiazopyr] | 10.7 |
| CN1CCCC(CC2c3ccccc3Sc3ccccc32)C1 (configuration not stated) [Metixene] | 8.51 |
| CC(C)CC(CN)CC(=O)O (configuration not stated) [Pregabalin] | 3.88 |
| CCCCC(CC)COC(=O)c1ccccc1C(=O)OCC(CC)CCCC (configuration not stated) [Phthalate-bis-(2-ethylhexyl). DEHP] | 15 |
| C=CCOC(Cn1ccnc1)c1ccc(Cl)cc1Cl (configuration not stated) [Imazalil] | 9.09 |
| CCCSC(=O)N(CCC)CCC [Vernolate] | 11.5 |
| CCC(=O)c1ccc2c(c1)N(CCCN(C)C)c1ccccc1S2 [Promazine-Propionyl] | 8.49 |

Reference: the RepoRT retention time repository (doi:10.1021/acs.analchem.2c02893)
